Where “and” joins values, the source holds several entries; their conditions need not be identical. Equal entries are not always repeated.
Experiments:
[1] = tested on: CCl4 induced hepatic injury; experiment: Hepatoprotective potential against CCl4 induced hepatic injury in rodents (prophylactic); assay type: in vivo, Rodents (Albino rats, Wistar; Albino mice, Swiss); settings: for % protection, GSH / % protection, LP / GSH (glutathione) / LP (lipid peroxidation): hepatic; for GSH (glutathione) / LP (lipid peroxidation) / ALP / Albumin / Bilirubin / GOT / GPT / TG: mean ± SE, six animals; for % protection, ALP / % protection, Albumin / % protection, Bilirubin / % protection, GOT / % protection, GPT / % protection, TG / ALP / Albumin / Bilirubin / GOT / GPT / TG: serum
From the text: The compound has been bioevaluated for hepatoprotective/antihepatotoxic activity by using a comprehensive study design annexed herewith as Annexure-2. The parameters studied during the bioevaluation to establish the bioefficacy and optimum dose were preferred using the kits (Clonital, Italy and Accurex Biomedical Pvt. Ltd Thane). The list of the parameters is given in Annexure-2 appended herewith. The dose response graphs with respect to different parameters in comparison with the standard drug with silymarin and glycyrrhizin are given in Annexure-3 appended herewith.
Hepatoprotective activity (H) was calculated by the following equation: H=[1−(TC−V/VC−V)]×100
Where TC, VC, and V are drug+toxin, vehicle+toxin and vehicle treated groups of animals respectively.

[2] = Effect on BP and respiration, I.V. in rat; assay type: in vivo; settings: 30 μg, 100 μg, 300 μg and 1 mg I.V. in rat
isolated rat colon = experiment: Histamine, 5-HT and Acetylcholine induced contraction on the isolated rat colon
[3] = Acteoside only (per-se), serum and hepatic parameters without toxin; assay type: in vivo, Rodents; settings: 5 mg/kg, mean ± SE, six animals

## CC1(C)[C@@H](O[C@H]2O[C@H](C(=O)O)[C@@H](O)[C@H](O)[C@H]2O[C@@H]2O[C@H](C(=O)O)[C@@H](O)[C@H](O)[C@H]2O)CC[C@]2(C)[C@H]3C(=O)C=C4[C@@H]5C[C@@](C)(C(=O)O)CC[C@]5(C)CC[C@@]4(C)[C@]3(C)CC[C@@H]12 [Glycyrrhizin, reference compound]
[1]; 100 mg/kg p.o. + CCl4
  % protection, GSH: (53.55) %
  % protection, LP: (56.08) %
  GSH (glutathione): 5.96 ± 0.26 μ mole GSH/g liver
  LP (lipid peroxidation): 54.37 ± 4.82 n mole MDA/g liver
  % protection, ALP: (46.48) %
  % protection, Albumin: (38.57) %
  % protection, Bilirubin: (42.85) %
  % protection, GOT: (56.44) %
  % protection, GPT: (53.87) %
  % protection, TG: (42.07) %
  ALP: 55.63 ± 3.52 μ mole of p-nitrophenol formed/min/L
  Albumin: 3.30 ± 0.12 g %
  Bilirubin: 0.55 ± 0.04 mg %
  GOT: 494.27 ± 36.28 Units (μ mole pyruvate/min/L)
  GPT: 746.87 ± 49.77 Units (μ mole pyruvate/min/L)
  TG: 65.31 ± 3.69 mg %

## C[C@@H]1O[C@@H](O[C@@H]2[C@@H](O)[C@H](OCCc3ccc(O)c(O)c3)O[C@H](CO)[C@H]2OC(=O)/C=C/c2ccc(O)c(O)c2)[C@H](O)[C@H](O)[C@H]1O [Acteoside, β-(3′,4′-dihydroxyphenyl) ethyl —O-α-L-rhamnopyranosyl (1→3)-β-D-(4-O-caffeoyl)-glucopyranoside]
[2]
  effect on BP: O: There is no effect on BP and Respiration in the doses of 30 μg, 100 μg, 300 μg and 1 mg I.V. in rat as there is no change in base line.
  effect on Respiration: O: There is no effect on BP and Respiration in the doses of 30 μg, 100 μg, 300 μg and 1 mg I.V. in rat as there is no change in base line.
[1]; 0.625 mg/kg p.o. + CCl4
  % protection, GSH: (27.86) %
  % protection, LP: (43.53) %
  GSH (glutathione): 4.66 ± 0.28 μ mole GSH/g liver
  LP (lipid peroxidation): 61.08 ± 3.39 n mole MDA/g liver
  % protection, ALP: (21.48) %
  % protection, Albumin: (21.43) %
  % protection, Bilirubin: (12.24) %
  % protection, GOT: (36.64) %
  % protection, GPT: (39.44) %
  % protection, TG: (17.63) %
  ALP: 66.80 ± 3.53 μ mole of p-nitrophenol formed/min/L
  Albumin: 3.06 ± 0.07 g %
  Bilirubin: 0.70 ± 0.03 mg %
  GOT: 673.82 ± 56.28 Units (μ mole pyruvate/min/L)
  GPT: 852.27 ± 47.93 Units (μ mole pyruvate/min/L)
  TG: 80.15 ± 3.53 mg %
[1]; 1.25 mg upto 5 mg/kg, CCl4
  overall percent protection with reference to all the parameters studied: 40-85% and 40-80%
[1]; 1.25 mg/kg p.o. + CCl4
  % protection, GSH: (52.96) %
  % protection, LP: (59.38) %
  GSH (glutathione): 5.93 ± 0.32 μ mole GSH/g liver
  LP (lipid peroxidation): 52.61 ± 2.25 n mole MDA/g liver
  % protection, ALP: (38.72) %
  % protection, Albumin: (35.00) %
  % protection, Bilirubin: (34.69) %
  % protection, GOT: (55.43) %
  % protection, GPT: (51.01) %
  % protection, TG: (27.13) %
  ALP: 59.10 ± 3.09 μ mole of p-nitrophenol formed/min/L
  Albumin: 3.25 ± 0.14 g %
  Bilirubin: 0.59 ± 0.03 mg %
  GOT: 503.42 ± 48.95 Units (μ mole pyruvate/min/L)
  GPT: 787.56 ± 57.49 Units (μ mole pyruvate/min/L)
  TG: 74.38 ± 3.78 mg %
[1]; 2.5 mg/kg p.o. + CCl4
  % protection, GSH: (68.57) %
  % protection, LP: (72.76) %
  GSH (glutathione): 6.72 ± 0.28 μ mole GSH/g liver
  LP (lipid peroxidation): 45.46 ± 2.79 n mole MDA/g liver
  % protection, ALP: (56.40) %
  % protection, Albumin: (56.43) %
  % protection, Bilirubin: (53.06) %
  % protection, GOT: (58.92) %
  % protection, GPT: (59.79) %
  % protection, TG: (51.06) %
  ALP: 51.20 ± 1.42 μ mole of p-nitrophenol formed/min/L
  Albumin: 3.55 ± 0.22 g %
  Bilirubin: 0.50 ± 0.03 mg %
  GOT: 471.81 ± 26.40 Units (μ mole pyruvate/min/L)
  GPT: 662.62 ± 39.80 Units (μ mole pyruvate/min/L)
  TG: 59.85 ± 1.88 mg %
[1]; 5.0 mg/kg p.o. + CCl4
  % protection, GSH: (74.50) %
  % protection, LP: (75.07) %
  GSH (glutathione): 7.02 ± 0.46 μ mole GSH/g liver
  LP (lipid peroxidation): 44.22 ± 1.66 n mole MDA/g liver
  % protection, ALP: (67.21) %
  % protection, Albumin: (82.14) %
  % protection, Bilirubin: (69.38) %
  % protection, GOT: (70.49) %
  % protection, GPT: (66.08) %
  % protection, TG: (68.42) %
  ALP: 46.37 ± 1.89 μ mole of p-nitrophenol formed/min/L
  Albumin: 3.91 ± 0.12 g %
  Bilirubin: 0.42 ± 0.02 mg %
  GOT: 366.89 ± 26.97 Units (μ mole pyruvate/min/L)
  GPT: 573.10 ± 28.25 Units (μ mole pyruvate/min/L)
  TG: 49.31 ± 1.47 mg %
[1]; silymarin at 10-20 times the dosage of acteoside
  overall protection compared with silymarin: better than that rendered by silymarin
Isolated rat colon
  effect on 5-HT induced contraction: O: There is no change in the base line against the Histamine, 5-HT and Acetylcholine induced contraction on the isolated rat colon.
  effect on Acetylcholine induced contraction: O: There is no change in the base line against the Histamine, 5-HT and Acetylcholine induced contraction on the isolated rat colon.
  effect on Histamine induced contraction: O: There is no change in the base line against the Histamine, 5-HT and Acetylcholine induced contraction on the isolated rat colon.
[3]; no CCl4, hepatic
  GSH (glutathione): 8.33 ± 0.33 μ mole GSH/g liver
  LP (lipid peroxidation): 30.52 ± 1.38 n mole MDA/g liver
[3]; no CCl4, serum
  ALP: 31.87 ± 2.15 μ mole of p-nitrophenol formed/min/L
  Albumin: 4.66 ± 0.18 g %
  Bilirubin: 0.27 ± 0.02 mg %
  GOT: 94.71 ± 5.29 Units (μ mole pyruvate/min/L)
  GPT: 98.91 ± 5.30 Units (μ mole pyruvate/min/L)
  TG: 31.10 ± 2.39 mg %
